# Experimental data published in patent publication US20110059953A1, “COMPOUNDS FOR USE IN STABILIZING P53 MUTANTS” (priority 2008, published 2011).
# Assays:
# T-p53C-Y220C [1] = molecular target: T1, T-p53C-Y220C (Homo sapiens, UniProt P04637, M133L/N239Y/N268D/V203A/Y220C); assay: Thermal denaturation using fluorescence (Sypro Orange); assay type: binding; details: further studies on compounds described above; 10 μM protein
# T1 construct: For all other experiments, the DNA coding for residues 94-312 of T-p53C was inserted into a modified pET24a(+) vector; 6xHis tag + B. stearothermophilus dihydrolipoyl acetyltransferase lipoyl domain (aa 1-85) + TEV site (N, cleaved yes); made in house; host or cells: Escherichia coli BL21 (DE3) or C41 (DE3)
# Method: This was by an adaption of the classical procedure (e.g. ref A6). Thermal unfolding was monitored by the binding of the dye Sypro Orange (5×) using a Rotor-gene 6000 (Corbett Life Science) at 270 K/h in 25 mM NaPi, 150 mM NaCl and 5 mM DTT, pH 7.2 with a protein concentration of 10 μM.
# (§1) Where listed, S.E. is the calculated standard error.
# as §1
# T-p53C-Y220C [2] = molecular target: T1, T-p53C-Y220C; assay: Thermal denaturation using capillary DSC; assay type: binding
# Method: Differential Scanning calorimetry (DSC) was used to probe the stabilising effect of the ligands on […]. For a reversible two-state system, the melting temperature, Tm, is the transition temperature where the folded and unfolded states are equally populated.
# DSC experiments were performed using a Microcal VP-Capillary DSC instrument (Microcal, Amherst, Mass.) with an active cell volume of ˜125 μl. Protein samples were buffer exchanged into 25 mM NaPi, pH 7.2, 150 mM NaCl, 5 mM DTT. This buffer + the respective concentration of ligand/DMSO was used for baseline scans, so that the only difference between sample and reference cell or sample cell in the measurement and both cells in the baseline scan is the presence of the protein. A final concentration of 20 μM T-p53C-Y220C was used. A pressure of 2.5 bars (nitrogen) was applied to the cell. Temperatures from 10 to 85° C. were scanned at a rate of 250° C./h, with a filtering period of 4 seconds and feedback gain/mode set at medium. Data were analysed with ORIGIN software (Microcal).
# The following tables show the results of the thermal denaturation studies using capillary DSC, where ΔTm is the increase in Tm on adding 250 μM of the test compound. The Dunnett significance test (P) value given is the calculated probability that the change in Tm is insignificant.
# T-p53C-Y220C [3] = molecular target: T1, T-p53C-Y220C; assay: 1H/15N-HSQC NMR chemical shift binding (KD NMR)
# Method: Uniformly ^15N-labelled core domains of T-p53C-Y220C was expressed and purified according to the above described protocol. The low molecular-weight compounds were dissolved in d^6-DMSO to make 10 mM stock solutions. To screen compound mixtures by chemical shift mapping, 10 μl of each of 4 different compounds were mixed together and 25 μl of this mixture was added to 25 μl of D2O and 500 μl of 70 μM T-p53C-Y220C (in 25 mM NaPi, 150 mM NaCl and 5 mM DTT, pH 7.2 ). […] NMR samples were freshly prepared and kept sealed under argon after degassing by repeated cycles of pumping the NMR tube under low pressure (while gently tapping the tube) and returning to atmospheric pressure using a stream of argon gas. This was done to maintain sample stability.
# Using Bruker's TopSpin 2.0 software, the number of complex points in t1 was doubled by forward complex linear prediction and shifted squared sine bell window functions were applied to both dimensions prior to zero filling and Fourier transformation. A digital resolution of 2.0 Hz/point in the ^1H frequency dimension and 4.7 Hz/point in the ^15N frequency dimension was used. […] An in-house script was used to analyse chemical shift differences and map these onto PDB protein structures.
# For certain compounds an array of different concentrations were used to derive KD values (KD NMR) by fitting a saturation binding equation (Δδ=c+a*[L]/(KD+[L])) to the concentration-dependent chemical shift changes of the relevant shifting peaks.
# T-p53C-Y220C [4] = molecular target: T1, T-p53C-Y220C; assay: Equilibrium sedimentation analytical ultracentrifugation (AUC) binding
# Excerpt: Analytical centrifugation studies the distribution of molecules under gravity force. In equilibrium sedimentation experiment the solute concentrates at the bottom of the cell and forms a concentration gradient. The steepness of this gradient depends on the molecular weight of the solute, the heavier the molecule the steeper the gradient. Small molecules have a molecular weight around 500 Da, and p53 core domain is large protein molecule of 24.5 kDa. Under the experimental conditions chosen, small molecules form a very shallow, practically negligible gradient, while p53 presents a very well defined sedimentation profile. […] By monitoring the distribution of the small molecule via absorbance at wavelengths above 300 nm (the ligands must absorb light in this spectral range for the method to work) so that signal is not affected by the absorbance of the protein (e.g., 310, 340 and 380 nm), it is possible to determine if the small molecule binds to the protein, and in many cases measure the dissociation constant. […]
# Equilibrium sedimentation experiments were performed on a Beckman XL-I ultracentrifuge using Ti-50 rotor and 6-sector cells. at speeds of 30,000 and 40,000 rpm at 10° C. Up to 21 samples were analysed simultaneously. […] The samples contained ligand at concentration of 15 μM-40 μM, with absorbance of 0.3-0.5 at one of the selected wavelengths and 100 μM T-p53-Y220C.
structure (smiles),measurement,setting,value
CCn1c2ccccc2c2cc(CNC)ccc21 [PK083],ΔTm (° C.),T-p53C-Y220C [1],0.76 °C
same,Kd,"T-p53C-Y220C [2]; at 316-318 K, read-out: approximate KD from DSC stabilization fit",~140 µM
same,ΔTm,"T-p53C-Y220C [2]; increase in Tm on adding 250 μM of the test compound, 20 μM protein",0.75 °C
same,Kd,"T-p53C-Y220C [3]; KD (@ 20° C.) μM, further NMR studies, some revised values",114 µM
same,Kd,"T-p53C-Y220C [3]; KD (@ 20° C.), 1H/15N-HSQC",167 µM
same,Kd,T-p53C-Y220C [4],170 µM
